Results as given in patent EP4603105A1, “PHARMACEUTICAL COMPOSITION CONTAINING CYCLIC COMPOUND HAVING SELECTIVE KRAS INHIBITORY EFFECT AGAINST HRAS AND NRAS” (CHUGAI SEIYAKU KABUSHIKI KAISHA, priority 2022, dated 2024).
Where two headings read alike, the source gives them in different places.

Columns and labels:
[1] = test system: human lung cancer strain NCI-H441; assay: NCI-H441 cell proliferation inhibitory activity (CellTiter-Glo, 4 days); type: cell-based; settings: read-out: NCl-H441 IC50
How it was run: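 Readout: […] after the ATP-based reagent. Compound: serial dilutions in dimethyl sulfoxide.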

[2] = biological target: HRAS wild-type protein (Homo sapiens, UniProt P01112); assay: Binding to HRAS by surface plasmon resonance (SPR), KD and KD ratio to KRAS
How it was run: (§1)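 GDP-bound biotin-Avi RAS captured at ~100–300 RU, 30°C, pH 7.4 HBS containing 10 µM GDP, 10 mM MgCl2, 1 mM DTT, 0.01% Tween 20 and 4% DMSO. KD by 1:1 fitting.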

[3] = biological target: GDP-bound NRAS wild-type protein (Homo sapiens, UniProt P01111); assay: Binding to NRAS by surface plasmon resonance (SPR), KD and KD ratio to KRAS
How it was run: as §1

[4] = biological target: GDP-bound KRAS wild-type protein (Homo sapiens, UniProt P01116); assay: Binding to KRAS by surface plasmon resonance (SPR), dissociation constant KD; settings: Single Cycle Kinetics
How it was run: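 Read-out is KD from 1:1 fitting of single-cycle kinetics sensorgrams, blank-cycle and reference-surface corrected. Proteins were GDP-loaded, biotinylated Avi-fusions freshly captured each cycle at roughly 100–300 RU. Runs were at 30°C in HBS pH 7.4 with MgCl2, GDP and 4% DMSO.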

[5] = ratio of KD for HRAS wild-type protein to KD for KRAS
[6] = ratio of KD for GDP-bound NRAS wild-type protein to KD for KRAS
[7] = 50% proliferation inhibitory concentration, four days
[8] = ratio of KD with respect to HRAS wild-type protein to KD with respect to KRAS
[9] = ratio of KD with respect to GDP-bound NRAS wild-type protein to KD with respect to KRAS

Sequence of GDP-bound KRAS wild-type protein (P01116 1-188 isoform P01116-2): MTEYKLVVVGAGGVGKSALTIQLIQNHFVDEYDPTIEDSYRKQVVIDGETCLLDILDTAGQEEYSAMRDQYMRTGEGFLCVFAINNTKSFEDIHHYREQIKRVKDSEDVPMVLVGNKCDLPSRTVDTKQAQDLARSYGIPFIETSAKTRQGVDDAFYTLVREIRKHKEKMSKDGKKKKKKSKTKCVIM
Sequence of GDP-bound NRAS wild-type protein (P01111 whole entry): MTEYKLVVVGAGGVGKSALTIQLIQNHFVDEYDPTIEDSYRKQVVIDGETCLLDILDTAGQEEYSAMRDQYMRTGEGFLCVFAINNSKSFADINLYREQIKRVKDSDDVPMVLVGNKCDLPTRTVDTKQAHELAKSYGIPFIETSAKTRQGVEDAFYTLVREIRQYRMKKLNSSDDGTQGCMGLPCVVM
Sequence of HRAS wild-type protein (P01112 whole entry): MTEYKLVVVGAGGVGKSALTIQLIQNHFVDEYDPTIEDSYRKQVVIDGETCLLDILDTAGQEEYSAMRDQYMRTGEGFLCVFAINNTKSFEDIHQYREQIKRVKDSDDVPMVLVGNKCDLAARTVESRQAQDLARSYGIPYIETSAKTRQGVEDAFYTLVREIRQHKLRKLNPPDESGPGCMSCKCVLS

| Structure (SMILES) | IC50 ([1]; NCI-H441 cells, 4 days) | Kd [4] | IC50 [1, 7] | Kd ([4]; 1:1 binding model) | HRAS /KRAS [2, 5] | NRAS /KRAS [3, 6] | HRAS /KRAS [2, 8] | NRAS /KRAS [3, 9] |
| --- | --- | --- | --- | --- | --- | --- | --- | --- |
| CCCO[C@@H]1C[C@H]2C(=O)NC3(CC(C)(C)C3)C(=O)N(C)[C@@H](C3CCCC3)C(=O)N(C)[C@H](C(=O)N(C)CC)CC(=O)N(C)[C@@H](COCC)C(=O)N[C@@H]([C@@H](C)CC)C(=O)N3CCC[C@H]3C(=O)N(C)[C@H]3C/C=C\CCN(C3=O)[C@@H](Cc3ccc(C(F)(F)F)cc3)C(=O)N(C)CC(=O)N[C@@H](CCc3ccc(C(F)(F)F)c(Cl)c3)C(=O)N2C1 [PP3405] | 40.5 nM | 1.5 nM | – | – | A (a compound having 10 or more and less than 20 is denoted as A) | A (a compound having 10 or more and less than 20 is denoted as A) | – | – |
| CCC[C@H]1C(=O)N[C@@H]([C@@H](C)CC)C(=O)N(C)CC(=O)N(C)[C@H]2C/C=C\CCN(C2=O)[C@@H](Cc2ccc(C(F)(F)F)cc2)C(=O)N(C)CC(=O)N[C@@H](CCc2ccc(C(F)(F)F)c(OC)c2)C(=O)N2C[C@H](OCC)C[C@H]2C(=O)NC2(CCC2)C(=O)N(C)[C@@H](C(CC)CC)C(=O)N(C)[C@H](C(=O)N(C)C)CC(=O)N1C [PP1208] | – | – | 24.4 nM | 0.17 nM | – | – | A (a compound having 10 or more and less than 20 is denoted as A) | AA (a compound having 20 or more is denoted as AA) |
| CC[C@H](C)[C@@H]1NC(=O)[C@H](CC)N(C)C(=O)C[C@@H](C(=O)N(C)C)N(C)C(=O)[C@H](C2CCCC2)N(C)C(=O)C2(CCC2)NC(=O)[C@@H]2C[C@H](C)CN2C(=O)[C@H](CCc2cc(F)c(C(F)(F)F)c(F)c2)NC(=O)CN(C)C(=O)[C@H](CC2CCC(F)(F)CC2)N2CC/C=C\C[C@@H](C2=O)N(C)C(=O)CN(C)C1=O [PP1457] | – | – | 30.4 nM | 0.15 nM | – | – | A (a compound having 10 or more and less than 20 is denoted as A) | A (a compound having 10 or more and less than 20 is denoted as A) |
| CCC[C@H]1C(=O)N[C@@H]([C@@H](C)CC)C(=O)N(C)CC(=O)N(C)[C@H]2C/C=C\CCN(C2=O)[C@@H](Cc2ccc(C)cc2)C(=O)N(C)CC(=O)N[C@@H](CCc2ccc(C(F)(F)F)c(OC)c2)C(=O)N2CC3(CC3)C[C@H]2C(=O)NC2(CCC2)C(=O)N(C)[C@@H](C(CC)CC)C(=O)N(C)[C@H](C(=O)N(C)C)CC(=O)N1C [PP3422] | 8.4 nM | 0.39 nM | – | – | A (a compound having 10 or more and less than 20 is denoted as A) | AA (a compound having 20 or more is denoted as AA) | – | – |
| CCC[C@H]1C(=O)N[C@@H]([C@@H](C)CC)C(=O)N2CCC[C@H]2C(=O)N(C)[C@H]2C/C=C\CCN(C2=O)[C@@H](Cc2ccc(C)cc2)C(=O)N(C)CC(=O)N[C@@H](CCc2cc(F)c(C(F)(F)F)c(F)c2)C(=O)N2C[C@H](OCC)C[C@H]2C(=O)NC2(CCCC2)C(=O)N(C)[C@@H](C2CCCC2)C(=O)N(C)[C@H](C(=O)N(C)C)CC(=O)N1C [PP3480] | 12.9 nM | 0.49 nM | – | – | A (a compound having 10 or more and less than 20 is denoted as A) | A (a compound having 10 or more and less than 20 is denoted as A) | – | – |
| C#CCN1CC(=O)N(C)[C@H]2C/C=C\CCN(C2=O)[C@@H](Cc2ccc(C(F)F)cc2)C(=O)N(C)CC(=O)N[C@@H](CCc2cc(F)c(C(F)(F)F)c(F)c2)C(=O)N2C[C@H](OCC)C[C@H]2C(=O)N(C)C2(CCC2)C(=O)N(C)[C@@H](C(CC)CC)C(=O)N(C)[C@H](C(=O)N(C)C)CC(=O)N(C)[C@@H](COCCC)C(=O)N[C@@H]([C@@H](C)OC)C1=O [PP3506] | 12.5 nM | 0.73 nM | – | – | A (a compound having 10 or more and less than 20 is denoted as A) | A (a compound having 10 or more and less than 20 is denoted as A) | – | – |

The next lines start with results.

| IC50 ([1]; NCI-H441 cells, 4 days) | Kd [4] | IC50 [1, 7] | Kd ([4]; 1:1 binding model) | Structure (SMILES) | HRAS /KRAS [2, 5] | NRAS /KRAS [3, 6] | HRAS /KRAS [2, 8] | NRAS /KRAS [3, 9] |
| --- | --- | --- | --- | --- | --- | --- | --- | --- |
| – | – | 3.7 nM | 0.037 nM | CCO[C@@H]1C[C@H]2C(=O)NC3(CCCC3)C(=O)N(C)[C@@H](C3CCCC3)C(=O)N(C)[C@H](C(=O)N(C)C)CC(=O)N(C)[C@@H](CC3CC3)C(=O)N[C@@H]([C@@H](C)CC)C(=O)N(C)CC(=O)N(C)[C@H]3C[C@@H](C)[C@@H](C)CN(C3=O)[C@@H](Cc3ccc(C(F)(F)F)cc3)C(=O)N(C)CC(=O)N[C@@H](CCc3ccc(C(F)(F)F)c(Cl)c3)C(=O)N2C1 [PP1362] | – | – | B (a compound having 3 or more and less than 10 is denoted as B) | A (a compound having 10 or more and less than 20 is denoted as A) |
| – | – | 5 nM | 0.078 nM | CCO[C@@H]1C[C@H]2C(=O)NC3(CCC3)C(=O)N(C)[C@@H](C3CCCC3)C(=O)N(C)[C@H](C(=O)N3CCOCC3)CC(=O)N(C)[C@@H](CC)C(=O)N[C@@H]([C@@H](C)CC)C(=O)N(C)CC(=O)N(C)[C@H]3CC[C@@H](C)CN(C3=O)[C@@H](Cc3ccc(C(F)(F)F)cc3)C(=O)N(C)CC(=O)N[C@@H](CCc3cc(F)c(C(F)(F)F)c(F)c3)C(=O)N2C1 [PP1372] | – | – | B (a compound having 3 or more and less than 10 is denoted as B) | B (a compound having 3 or more and less than 10 is denoted as B) |
| 22.3 nM | 0.87 nM | – | – | CCC[C@H]1C(=O)N[C@@H]([C@@H](C)CC)C(=O)N(C2CC2)CC(=O)N(C)[C@H]2C/C(F)=C\CCN(C2=O)[C@@H](Cc2ccc(C)cc2)C(=O)N(C)CC(=O)N[C@@H](CCc2cc(F)c(C(F)(F)F)c(F)c2)C(=O)N2C[C@H](OCC)C[C@H]2C(=O)NC2(CCC2)C(=O)N(C)[C@@H](C2CCCC2)C(=O)N(C)[C@H](C(=O)N(C)C)CC(=O)N1C [PP3519] | B (a compound having 3 or more and less than 10 is denoted as B) | B (a compound having 3 or more and less than 10 is denoted as B) | – | – |
